Measurements as given in patent publication US20170128518A1, “METHODS AND MATERIALS FOR IDENTIFYING AND TREATING MAMMALS RESISTANT TO PROTEASOME INHIBITOR TREATMENTS” (Mayo Foundation for Medical Education and Research, priority 2014, published 2017).
“Also recorded” adds a separate entry of the source.

Columns and labels:
[1] = test system: MWCL-1 cells; assay: MTS viability assay, MWCL-1; format: cell-based, human; conditions: 72-h MTS assay
Method: Twenty thousand cells/200 μl in quadruplicates were incubated with serially diluted b-AP15 (1-1000 nmol/l) in 96-well plates at 37° C. for 72 hours. MTS (3-(4,5-dimethylthiazol-2-yl)-5-(3-carboxymethoxyphenyl)-2-(4-sulfophenyl)-2H-tetrazolium) reagent (Molecular Probes, Eugene, Oreg.) was added at 40 μl/well and the plates were further incubated at 37° C. for 3 hours and the developed color was read at 490 nm using a BioTek synergy HT plate reader against blanks with no cells.

[2] = test system: WM cells; assay: Immunoblot analysis of WM cells; format: cell-based, human
Method: Total protein extracts were made using radioimmunoprecipitation assay lysis buffer (50 mmol/1 Tris containing 150 mmol/1 NaCl, 0.1% SDS, 1% TritonX-100, 1% sodium deoxycholate, pH 7.2) with 0.2% protease and phosphatase inhibitor cocktail (Sigma, St. Louis, Mo.) on ice for 40 minutes, vortexing for 5 seconds every 10 minutes. Following centrifugation at 18,400 g for 20 minutes, the supernatant was collected and used for Western blot analyses. Protein content in the extracts was measured by bicinchoninic acid protein assay reagent. Aliquots of 20 μg of total protein were boiled in Laemmli sample buffer, loaded onto 10% SDS-PAGE gels, and transferred onto a nitrocellulose membrane. Membranes were blocked for 1 hour in TBS/Tween 20 [TTBS] containing 1% nonfat dried milk and 1% BSA. Incubation with primary antibodies was done overnight at 4° C., followed by washing 3× with TTBS and incubation for 1 hour with HRP-conjugated secondary antibody. The blots were developed using chemiluminescence (Thermo Scientific, Rockford, Ill.).

[3] = test system: CD19+/CD138+ WM cells from human patients; assay: Annexin-V apoptosis assay, primary patient-derived WM cells; format: cell-based
Method: FIGS. 12A-12D are a series of graphs and Western blots showing b-AP15 induction of tumor-specific apoptosis in WM cell lines and primary patient-derived WM cells. FIG. 12A is a graph plotting cell death as a percentage of control cell death for all available WM cell lines (n=6, WT and BR derivatives) after treatment with the indicated concentrations of b-AP15, followed by staining with annexin-V and propidium iodide and then flow cytometry to examine apoptosis. […] Each experiment was conducted a minimum of three times with control cells (no drug treatment) showing a viability ([…] and propidium iodide-negative population) of >85%. Following treatment, the percentage of cells affected by b-AP15 was calculated by normalizing data from treated cells relative to the control (untreated) cells. […]
Apoptosis was measured using the Annexin V binding assay kit from BD Biosciences according to the manufacturer's instructions. […] Fluorescein isothiocycanate (FITC)-labelled Annexin V (5 μl) and propidium iodide (10μ were added to each sample and incubated in the dark for 15 minutes at room temperature. The cells were subsequently analyzed by flow cytometry using BD Accuri, the C6 flow cytometer and its software. Data from 10,000 events per sample were collected and analyzed.

[4] = test system: WT and BR WM cells; assay: Mitochondrial outer membrane permeability (TMRM), WM cell lines; format: cell-based, human
Method: Cells were treated with different agents for 48 hours and assessed for MOMP using tetramethylrhodamine methyl ester [TMRM] (Life Technologies). TMRM was directly added to the cell cultures at 100 nmol/1 concentrations and incubated at 37° C. in the dark for 15 minutes. At the end of the incubation, cells were washed twice with cold PBS containing 2% FBS and analyzed. The cells were washed for fluorescence (FL2) and analyzed by BD Accuri, the C6 flow cytometer and its software. Data from at least 20,000 events per sample were collected and analyzed. TMRM-negative (%) cells were calculated to determine % MOMP.

C=CC(=O)N1C/C(=C\c2ccc([N+](=O)[O-])cc2)C(=O)/C(=C/c2ccc([N+](=O)[O-])cc2)C1 [b-AP15]
IC50 [1]: 7 nM
BCL2 protein [2]: No change
p-EIF2a expression [2]: did not appear to change
phosphorylated MAPK14 (p38) protein ([2]; 6-hour treatment): significant increase
RELA nuclear protein levels ([2]; 6 hours, BCWM.1 shown): marked reduction; also recorded: markedly reduced
MYC total and nuclear expression ([2]; BCWM.1): reduced total and nuclear expression
EIF2AK3 (PERK) levels ([2]; BR models): decreased EIF2AK3 levels
USP14 and UCHL5 protein expression ([2]; WM cell lines (WT and BR), 0.5 and 1 μmol/l): no observable shift
PARP1 cleavage ([2]; WM cell lines and primary WM tumor cells): confirming execution of apoptosis
TP53 protein ([2]; WT and BR WM cells): marginal increase
HSPA1A protein ([2]; all cell lines): further induced
ERN1a, XBP1u and XBP1s protein ([2]; all models tested): significantly induced
total ubiquitinated cellular protein content ([2]; dose-dependent): increasing amounts of high molecular weight polyubiquitinated conjugates
USP14 and UCHL5 protein expression ([2]; primary CD19+/CD138+ WM cells, 0.5 μmol/l): did not change
p-MAPK3/MAPK1 (ERK1/2) ([2]; wild type cell lines): increase
apoptosis (annexin-V positivity) ([3]; 0.5 μmol/l, 12 hours): Significant annexin-V positivity; also recorded: Robust apoptotic cell death
cells undergoing total loss of viability ([3]; 1 μmol/l): > 90%
MOMP [4]: significantly induced
